Experimental data as given in patent US20260085062A1, “NOVEL COMPOUNDS AS CK2 INHIBITORS” (Cambridge Enterprise Limited, priority 2022, published 2026).

What was measured:
CK2α = target: T1, CK2α (Homo sapiens, UniProt P68400); experiment: Biochemical assay for inhibitors of CK2α kinase activity (ADP-Glo); conditions: 0.2 nM CK2α, 50 μM peptide substrate, 15 μM ATP, read-out: Assay 1: CK2α Enzyme IC50
T1 construct: CK2α (residues 2-329) was produced in Escherichia coli BL21 (DE3) for kinase activity screening; His6 (N, cleaved yes); made in house; host or cells: Escherichia coli BL21 (DE3)
T1 sequence (P68400 2-329): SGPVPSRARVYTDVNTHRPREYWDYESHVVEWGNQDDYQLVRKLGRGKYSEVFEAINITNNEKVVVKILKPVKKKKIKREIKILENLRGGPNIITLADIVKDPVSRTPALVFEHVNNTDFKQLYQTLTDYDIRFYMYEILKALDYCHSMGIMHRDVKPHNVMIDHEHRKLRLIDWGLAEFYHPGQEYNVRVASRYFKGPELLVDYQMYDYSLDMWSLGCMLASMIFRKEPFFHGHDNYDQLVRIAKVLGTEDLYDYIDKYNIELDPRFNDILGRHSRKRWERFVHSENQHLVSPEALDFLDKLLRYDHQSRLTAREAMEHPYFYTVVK

CLK2 = target: T2, CLK2 (Homo sapiens, UniProt P49760); experiment: Biochemical assay for inhibitors of CLK2 kinase activity (ADP-Glo); conditions: 20 nM CLK2, 50 μM peptide substrate, 100 μM ATP, read-out: Assay 2: CLK2 Enzyme IC50
T2 construct: purchased Carna Biosciences 04-127
T2 sequence (P49760 whole entry): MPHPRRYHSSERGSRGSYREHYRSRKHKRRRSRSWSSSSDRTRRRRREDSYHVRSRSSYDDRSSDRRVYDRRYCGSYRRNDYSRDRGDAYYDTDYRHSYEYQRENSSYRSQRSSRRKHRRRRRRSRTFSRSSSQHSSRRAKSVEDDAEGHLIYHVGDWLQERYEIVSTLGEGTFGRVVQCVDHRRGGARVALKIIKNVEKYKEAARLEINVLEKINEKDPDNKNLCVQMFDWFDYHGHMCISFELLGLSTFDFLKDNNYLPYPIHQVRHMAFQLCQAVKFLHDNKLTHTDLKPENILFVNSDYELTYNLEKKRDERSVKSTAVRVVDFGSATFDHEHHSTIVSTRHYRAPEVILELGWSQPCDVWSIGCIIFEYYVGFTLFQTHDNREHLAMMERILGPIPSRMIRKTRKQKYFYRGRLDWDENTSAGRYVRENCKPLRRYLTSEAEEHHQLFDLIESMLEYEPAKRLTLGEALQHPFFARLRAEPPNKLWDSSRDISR

intracellular CK2α = target: T3, intracellular CK2α (Homo sapiens, UniProt P19784); experiment: Cell-based NanoBRET assay for inhibitor binding to intracellular CK2α; conditions: HCT116 cells transiently transfected with CSNK2A2-NanoLuc fusion vector; Tracer K-5; 2 h; read-out: Assay 3: NanoBRET ™ assay for binding to intracellular CK2α
T3 construct: host or cells: HCT116 (ATCC CCL-247)
T3 sequence (P19784 whole entry, the tested form may be a part): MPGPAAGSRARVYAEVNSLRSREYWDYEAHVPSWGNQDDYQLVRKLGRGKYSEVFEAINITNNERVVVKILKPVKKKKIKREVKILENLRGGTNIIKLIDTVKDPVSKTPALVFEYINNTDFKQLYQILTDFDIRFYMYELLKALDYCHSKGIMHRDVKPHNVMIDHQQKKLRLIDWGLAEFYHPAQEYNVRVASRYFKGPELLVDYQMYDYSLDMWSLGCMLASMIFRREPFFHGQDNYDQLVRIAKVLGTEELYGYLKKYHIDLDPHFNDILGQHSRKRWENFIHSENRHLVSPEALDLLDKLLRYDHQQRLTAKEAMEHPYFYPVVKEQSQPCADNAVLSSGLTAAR
Summary of the method: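 Living cells expressing NanoLuc-CK2α fusion were given a fixed tracer concentration, and compounds competitively displaced the reversibly bound tracer. Donor (450 nm) and acceptor (610 or 630 nm) emissions were read; BRET ratio = (acceptor/donor)×1,000, giving apparent intracellular affinity.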

SMILES: N#Cc1cc(CNCCC(=O)NCCCNc2cc(-n3cnnc3)cc3[nH]ncc23)ccc1C1CC1 [Example 45, N-(3-((6-(4H-1,2,4-triazol-4-yl)-1H-indazol-4-yl)amino)propyl)-3-((3-cyano-4-cyclopropylbenzyl)amino)propanamide]
- IC50 (CK2α): 0.00095 µM
- IC50 (CLK2): 0.123 µM
- IC50 (intracellular CK2α): 6.38 µM

SMILES: N#Cc1cc(CNCCC(=O)NCCCNc2cc(-n3cnnc3)cc3[nH]ncc23)ccc1OC(F)(F)F [Example 46, N-(3-((6-(4H-1,2,4-triazol-4-yl)-1H-indazol-4-yl)amino)propyl)-3-((3-cyano-4-(trifluoromethoxy)benzyl)amino)propanamide]
- IC50 (CK2α): 0.00265 µM
- IC50 (CLK2): 0.237 µM
- IC50 (intracellular CK2α): 13.4 µM

SMILES: N#CCc1cccc(CNCCC(=O)NCCCNc2cc(-n3cnnc3)cc3[nH]ncc23)c1 [Example 47, N-(3-((6-(4H-1,2,4-triazol-4-yl)-1H-indazol-4-yl)amino)propyl)-3-((3-(cyanomethyl)benzyl)amino)propanamide]
- IC50 (CK2α): 0.00265 µM
- IC50 (CLK2): 0.133 µM
- IC50 (intracellular CK2α): 12 µM

SMILES: O=C(COCCCCNCc1ccc(OC(F)(F)F)c(Cl)c1)Nc1cc(-n2cnnc2)cc2[nH]ncc12 [Example 48, N-(6-(4H-1,2,4-triazol-4-yl)-1H-indazol-4-yl)-2-(4-((3-chloro-4-(trifluoromethoxy)benzyl)amino)butoxy)acetamide]
- IC50 (CK2α): 0.0203 µM
- IC50 (CLK2): 0.993 µM
- IC50 (intracellular CK2α): 2.75 µM

SMILES: FC(F)(F)c1ccc2[nH]c(CNCCCCOCCNc3cc(-n4cnnc4)cc4[nH]ncc34)cc2c1 [Example 49, 6-(4H-1,2,4-triazol-4-yl)-N-(2-(4-(((5-(trifluoromethyl)-1H-indol-2-yl)methyl)amino)butoxy)ethyl)-1H-indazol-4-amine]
- IC50 (CK2α): 0.00044 µM
- IC50 (CLK2): 0.0905 µM
- IC50 (intracellular CK2α): 0.106 µM

SMILES: Cn1c(CNCCCCOCCNc2cc(-n3cnnc3)cc3[nH]ncc23)cc2ccc(Cl)cc21 [Example 50, N-(2-(4-(((6-chloro-1-methyl-1H-indol-2-yl)methyl)amino)butoxy)ethyl)-6-(4H-1,2,4-triazol-4-yl)-1H-indazol-4-amine]
- IC50 (CK2α): 0.0022 µM
- IC50 (CLK2): 0.094 µM
- IC50 (intracellular CK2α): 0.153 µM

SMILES: Cn1c(CNCCCCOCCNc2cc(-n3cnnc3)cc3[nH]ncc23)cc2cc(C(F)(F)F)ccc21 [Example 51, N-(2-(4-(((1-methyl-5-(trifluoromethyl)-1H-indol-2-yl)methyl)amino)butoxy)ethyl)-6-(4H-1,2,4-triazol-4-yl)-1H-indazol-4-amine]
- IC50 (CK2α): 0.00071 µM
- IC50 (CLK2): 0.225 µM
- IC50 (intracellular CK2α): 0.0721 µM

SMILES: Clc1ccc2cc(CNCCCCOCCNc3cc(-n4cnnc4)cc4[nH]ncc34)[nH]c2c1 [Example 52, N-(2-(4-(((6-chloro-1H-indol-2-yl)methyl)amino)butoxy)ethyl)-6-(4H-1,2,4-triazol-4-yl)-1H-indazol-4-amine]
- IC50 (CK2α): 0.00143 µM
- IC50 (CLK2): 0.0384 µM
- IC50 (intracellular CK2α): 0.294 µM

SMILES: c1cc2[nH]c(CNCCCCOCCNc3cc(-n4cnnc4)cc4[nH]ncc34)cc2cc1OC1CCC1 [Example 53, N-(2-(4-(((5-cyclobutoxy-1H-indol-2-yl)methyl)amino)butoxy)ethyl)-6-(4H-1,2,4-triazol-4-yl)-1H-indazol-4-amine]
- IC50 (CK2α): 0.00033 µM
- IC50 (CLK2): 0.119 µM
- IC50 (intracellular CK2α): 0.159 µM

SMILES: c1cc2[nH]c(CNCCCCOCCOc3cc(-c4cnoc4)cc4[nH]ncc34)cc2cc1OC1CCC1 [Example 54, N-((5-cyclobutoxy-1H-indol-2-yl)methyl)-4-(2-((6-(isoxazol-4-yl)-1H-indazol-4-yl)oxy)ethoxy)butan-1-amine]
- IC50 (CK2α): 0.00144 µM
- IC50 (CLK2): 0.217 µM
- IC50 (intracellular CK2α): 0.128 µM

SMILES: c1cc(-c2cc(OCCOCCCCNCc3cc4cc(OC5CCC5)ccc4[nH]3)c3cn[nH]c3c2)cnn1 [Example 55, N-((5-cyclobutoxy-1H-indol-2-yl)methyl)-4-(2-((6-(pyridazin-4-yl)-1H-indazol-4-yl)oxy)ethoxy)butan-1-amine]
- IC50 (CK2α): 0.00125 µM
- IC50 (CLK2): 4.74 µM
- IC50 (intracellular CK2α): 0.149 µM

SMILES: FC(F)(F)c1ccc2[nH]c(CNCCCCOCCOc3cc(-c4ccnnc4)cc4[nH]ncc34)cc2c1 [Example 56, 4-(2-((6-(pyridazin-4-yl)-1H-indazol-4-yl)oxy)ethoxy)-N-((5-(trifluoromethyl)-1H-indol-2-yl)methyl)butan-1-amine]
- IC50 (CK2α): 0.00659 µM
- IC50 (CLK2): 3.15 µM
- IC50 (intracellular CK2α): 0.387 µM

SMILES: c1cc(-c2cc(NCCOCCCCNCc3cc4cc(OC5CCC5)ccc4[nH]3)c3cn[nH]c3c2)cnn1 [Example 57, N-(2-(4-(((5-cyclobutoxy-1H-indol-2-yl)methyl)amino)butoxy)ethyl)-6-(pyridazin-4-yl)-1H-indazol-4-amine]
- IC50 (CK2α): 0.0006 µM
- IC50 (CLK2): 0.781 µM
- IC50 (intracellular CK2α): 0.0698 µM

SMILES: O=C(CCNCc1ccc(-c2ccccc2CO)c(Cl)c1)NCCCNc1cc(-n2cnnc2)cc2[nH]ncc12 [Example 58, N-(3-((6-(4H-1,2,4-triazol-4-yl)-1H-indazol-4-yl)amino)propyl)-3-(((2-chloro-2′-(hydroxymethyl)-[1,1′-biphenyl]-4-yl)methyl)amino)propanamide]
- IC50 (CK2α): 0.00028 µM
- IC50 (CLK2): 0.0409 µM
- IC50 (intracellular CK2α): 9.29 µM

SMILES: O=C(CCNCc1ccc(-c2ccccc2)c(Cl)c1)NCCCNc1cccc2[nH]ncc12 [Example 61, N-(3-((1H-indazol-4-yl)amino)propyl)-3-(((2-chloro-[1,1′-biphenyl]-4-yl)methyl)amino)propenamide]
- IC50 (CK2α): 0.104 µM
- IC50 (CLK2): 3.47 µM
- IC50 (intracellular CK2α): 0.176 µM

SMILES: CN(C)C(=O)c1cc(NCCCNC(=O)CCNCc2ccc(-c3ccccc3)c(Cl)c2)c2cn[nH]c2c1 [Example 62, 4-((3-(3-(((2-chloro-[1,1'-biphenyl]-4-yl)methyl)amino)propanamido)propyl)amino)-N,N-dimethyl-1H-indazole-6-carboxamide]
- IC50 (CK2α): 0.182 µM
- IC50 (CLK2): 14.3 µM
- IC50 (intracellular CK2α): 29.6 µM

SMILES: O=C(CCNCc1ccc(-c2ccccc2)c(Cl)c1)NCCCNc1cc(CO)cc2[nH]ncc12 [Example 63, 3-(((2-chloro-[1,1′-biphenyl]-4-yl)methyl)amino)-N-(3-((6-(hydroxymethyl)-1H-indazol-4-yl)amino)propyl)propanamide]
- IC50 (CK2α): 0.0683 µM
- IC50 (CLK2): 2.37 µM
- IC50 (intracellular CK2α): 4.98 µM

SMILES: FC(F)(F)Oc1ccc(CNCCc2ncc(CCNc3cc(-n4cnnc4)cc4[nH]ncc34)o2)cc1Cl [Example 64, N-(2-(2-(2-((3-chloro-4-(trifluoromethoxy)benzyl)amino)ethyl)oxazol-5-yl)ethyl)-6-(4H-1,2,4-triazol-4-yl)-1H-indazol-4-amine]
- IC50 (CK2α): 0.00788 µM
- IC50 (CLK2): 0.35 µM
- IC50 (intracellular CK2α): 1.84 µM

SMILES: O=C(Cc1nnc(CCNCc2ccc(OC(F)(F)F)c(Cl)c2)[nH]1)Nc1cc(-n2cnnc2)cc2[nH]ncc12 [Example 65, N-(6-(4H-1,2,4-triazol-4-yl)-1H-indazol-4-yl)-2-(5-(2-((3-chloro-4-_(trifluoromethoxy)benzyl)amino)ethyl)-4H-1,2,4-triazol-3-yl)acetamide]
- IC50 (CK2α): 0.163 µM
- IC50 (CLK2): 4.16 µM
- IC50 (intracellular CK2α): > 50 µM

SMILES: O=C(CCNCCCNCc1ccc(OC(F)(F)F)c(Cl)c1)Nc1cc(-n2cnnc2)cc2[nH]ncc12 [Example 66, N-(6-(4H-1,2,4-triazol-4-yl)-1H-indazol-4-yl)-3-((3-((3-chloro-4-(trifluoromethoxy)benzyl)amino)propyl)amino)propanamide]
- IC50 (CK2α): 0.176 µM
- IC50 (CLK2): 1 µM
- IC50 (intracellular CK2α): 15.6 µM

SMILES: FC(F)(F)Oc1ccc(CNCCCNCCCOc2cc(-n3cnnc3)cc3[nH]ncc23)cc1Cl [Example 67, N1-(3-((6-(4H-1,2,4-triazol-4-yl)-1H-indazol-4-yl)oxy)propyl)-N3-(3-chloro-4-(trifluoromethoxy)benzyl)propane-1,3-diamine]
- IC50 (CK2α): 0.278 µM
- IC50 (CLK2): 4.16 µM
- IC50 (intracellular CK2α): 13.8 µM

SMILES: Cn1c(CNCCCCOCCNc2cc(-n3cnnc3)cc3[nH]ncc23)nc2ccc(Cl)cc21 [Example 68, N-(2-(4-(((6-chloro-1-methyl-1H-benzo[d]imidazol-2-yl)methyl)amino)butoxy)ethyl)-6-(4H-1,2,4-triazol-4-yl)-1H-indazol-4-amine]
- IC50 (CK2α): 0.136 µM
- IC50 (CLK2): 0.566 µM
- IC50 (intracellular CK2α): 18.7 µM

SMILES: FC(F)(F)Oc1ccc(CNCCCOCCCOc2cc(-n3cnnc3)cc3[nH]ncc23)cc1Cl [Example 69, 3-(3-((6-(4H-1,2,4-triazol-4-yl)-1H-indazol-4-yl)oxy)propoxy)-N-(3-chloro-4-(trifluoromethoxy)benzyl)propan-1-amine]
- IC50 (CK2α): 0.0466 µM
- IC50 (CLK2): 0.688 µM
- IC50 (intracellular CK2α): 2.85 µM

SMILES: O=C(CCOCCCNCc1ccc(OC(F)(F)F)c(Cl)c1)Nc1cc(-n2cnnc2)cc2[nH]ncc12 [Example 70, N-(6-(4H-1,2,4-triazol-4-yl)-1H-indazol-4-yl)-3-(3-((3-chloro-4-(trifluoromethoxy)benzyl)amino)propoxy)propanamide]
- IC50 (CK2α): 0.256 µM
- IC50 (CLK2): 1.52 µM
- IC50 (intracellular CK2α): > 50 µM
